The text below walks through data of ChEMBL document CHEMBL1151295, “11-Methoxy-macusine A. A new quaternary alkaloid from Strychnos angolensis” (1983).

The nature of the test: Muscle relaxant activity in rat diaphragm assessed as inhibition of electrically-stimulated contraction. The class given is functional.

The structures appear in SMILES notation.

Regarding `C/C=C1/C[N+]2(C)[C@H]3C[C@@H]1[C@@](CO)(C(=O)OC)[C@@H]2Cc1c3[nH]c2cc(OC)ccc12` [11-METHOXY MACUSINE A], the Activity worked out at 0.16 mg/kg.
